What was measured:
[1] = biological target: T1, Rat lens Aldose reductase (Rattus norvegicus, UniProt P07943); assay: Aldose reductase inhibitory activity; type: biochemical; settings: rat lens enzyme, 0.2 mM NADPH, pH 6.2, 25° C.
T1 construct: Rat lens Aldose reductase is used; from tissue; host or cells: rat lens
Protocol: Rat lens Aldose reductase is used. Test compound and/or vehicle is preincubated with 3000 μg/ml enzyme (J. Enzyme Inhib. 1993, 7, 249-256; Biol. Pharm. Bull. 1994, 17, 458-459) and 0.2 mM NADPH in phosphate buffer pH 6.2 for 15 minutes at 25° C. The reaction is initiated by addition of 10 mM DL-glyceraldehyde and incubated for another 20 minutes. Determination of the amount of NADPH remained is read spectrophotometrically. Compounds are screened at 10 μM. Since enzyme activity may change from lot to lot, the concentration used will be adjusted if necessary.

[2] = biological target: T2, Matrix metalloproteinase-2 (MMP-2) (Homo sapiens, UniProt P08253); assay: Matrix metalloproteinase-2 (MMP-2) inhibitory activity; type: biochemical
T2 sequence (P08253 110-660): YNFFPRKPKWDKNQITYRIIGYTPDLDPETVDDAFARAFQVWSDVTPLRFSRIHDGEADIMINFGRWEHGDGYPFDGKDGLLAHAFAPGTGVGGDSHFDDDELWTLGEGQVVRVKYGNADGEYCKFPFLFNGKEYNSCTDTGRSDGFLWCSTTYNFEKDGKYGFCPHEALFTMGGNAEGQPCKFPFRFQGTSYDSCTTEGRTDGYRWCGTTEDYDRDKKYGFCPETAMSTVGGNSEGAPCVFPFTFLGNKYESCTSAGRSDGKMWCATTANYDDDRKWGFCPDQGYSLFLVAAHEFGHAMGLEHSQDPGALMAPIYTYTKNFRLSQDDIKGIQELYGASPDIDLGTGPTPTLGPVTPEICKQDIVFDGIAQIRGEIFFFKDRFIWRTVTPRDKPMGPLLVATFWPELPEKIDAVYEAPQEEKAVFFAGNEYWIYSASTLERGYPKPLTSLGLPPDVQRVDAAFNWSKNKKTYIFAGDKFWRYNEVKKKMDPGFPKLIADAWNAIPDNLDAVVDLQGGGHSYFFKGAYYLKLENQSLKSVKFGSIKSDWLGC
Protocol: 3. Matrix Metalloproteinase-2 (MMP-2) Inhibitory Activity (at 10 μM)
MMP-2 enzymes are implicated in lung metastasis and there inhibition is useful to prevent or treat lung metastasis (Journal of Ethnopharmacology 2011, 133, 426-433).

[3] = test system: Hepatic stellate cells (LX2); assay: Induction of apoptosis in hepatic stellate cells (LX2), propidium iodide staining; type: cell-based; settings: 8 hours, PI staining
From the text: Propidium iodide (PI) has been widely used to measure apoptosis in different experimental systems (Eur. J. Pharmacol., 2003, 473, 117-125; Br. J. Pharmacol., 2009, 158, 1720-1734). […] Next, cells were washed with PBS for 2 times to remove unbound PI and the fluorescence images were acquired with DP71 camera adapted to an Olympus IX71 microscope. Apoptotic cells were detected by propidium iodide (PI) staining and % apoptotic cells per field were estimated. Number of PI positive cells and total number of cells were counted from the images and plotted as percentage of apoptotic cells per field.

[4] = test system: human endothelial cells (ECV 304); assay: Selectivity of apoptosis induction: endothelial cells; type: cell-based; settings: ECV 304, PI staining
Protocol: (§1) Propidium iodide (PI) has been widely used to measure apoptosis in different experimental systems (Eur. J. Pharmacol., 2003, 473, 117-125; Br. J. Pharmacol., 2009, 158, 1720-1734). The LX2 cells were treated with vehicle (DMSO), staurosporine (0.1 nM), compound of formula (B) (2 μM), compound of formula (C) (2 μM) for 8 hours followed by propidium iodide (PI) for 10 minute. Next, cells were washed with PBS for 2 times to remove unbound PI and the fluorescence images were acquired with DP71 camera adapted to an Olympus IX71 microscope. Apoptotic cells were detected by propidium iodide (PI) staining and % apoptotic cells per field were estimated. Number of PI positive cells and total number of cells were counted from the images and plotted as percentage of apoptotic cells per field.
(§2) The methodology adopted is same as in Experiment-7 above.
(§3) Apoptotic cells were detected by propidium iodide (PI) staining and % apoptotic cells per field were estimated.

[5] = test system: human fibroblast cells isolated from skin biopsies; assay: Selectivity of apoptosis induction: skin fibroblasts; type: cell-based; settings: PI staining
Protocol: as §1, §2, §3

[6] = test system: human hepatocytes (HepG2); assay: Selectivity of apoptosis induction: hepatocytes; type: cell-based; settings: HepG2, PI staining
3T3-L1 fibroblasts = assay: Adipogenesis in 3T3-L1 mouse fibroblast (oil red O staining); type: cell-based; settings: 1 μM or 10 μM, 7 days
Protocol: 3T3-L1 fibroblasts were seeded at a concentration of 10,000 cells/well in 24 well tissue culture plates in a total volume of 1 mL Dulbecco's Modified Eagle Medium (DMEM media) containing 10% fetal bovine serum, penicillin and streptomycin. […] After every two days, the media contents were replaced with fresh media and the drug. This process was carried out for 7 days. After 7 days of treatment, the cells were fixed in 10% formalin for 1 hour at […], stained with oil red 0 solution for 10 minutes and washed 6 times with 1×PBS to remove the excess stain. The plates were dried and visualized under 40× objective using Nikon E200 microscope and the pictures were taken by Nikon DXM 1200C digital camera.

collagen type 1 = assay: Collagen type 1 secretion in activated hepatic stellate cells (western blot); type: cell-based; settings: overnight incubation, FIGS. 35a & 35b
Protocol: HSC cells were treated with the drugs and incubated overnight. The conditioned media was taken out and the secreted proteins were extracted using TCA-acetone method. The cells were harvested for western blot analysis and 1% SDS was added to the sample. Proteins were detected by using 1:500 dilution of polyclonal antibody to collagen type 1 (Abcam; AB292) and 1:1000 dilutions of goat anti-rabbit IgG conjugated to horseradish peroxidase (Bangalore GENEI). The blots were developed by using substrate TMB/H2O2. Loading control was performed using the β-actin house keeping gene expression level.

[7] = 48 weeks, 4 mg twice daily; Hepatology, 2003, 38, 1008-1017; cited from earlier work

| IC50 [1] [µM] | inhibition at 10 µM [2] [%] | Compound | % apoptotic cells per field ([3]; 2 μM) [%] | apoptosis vs vehicle (DMSO) [4] | apoptosis vs vehicle (DMSO) [5] | apoptosis vs vehicle (DMSO) [6] | adipogenesis (intracellular lipids stained with oil red O) (3T3-L1 fibroblasts) | Collagen secretion by activated hepatic stellate cells (collagen type 1) | median weight gain increase [7] [%] | patients in whom weight gain occurred [7] [%] | % apoptotic cells per field ([3]; 0.1 nM) |
| --- | --- | --- | --- | --- | --- | --- | --- | --- | --- | --- | --- |
| 4.92 | 59 | N[C@@H](Cc1ccc(Oc2ccc(CC3SC(=O)NC3=O)cc2)cc1)C(=O)O (stereo partly drawn) [Compound of formula (B), (2S)-2-Amino-3-(4-{4-[(2,4-dioxo-1,3-thiazolidin-5-yl)methyl]phenoxy}phenyl)propanoic acid] | 6±0.40 | no significant apoptosis | no significant apoptosis | no significant apoptosis | did not induce adipogenesis | markedly decreased | – | – | – |
| 1.43 | 16 | O=C(O)Cc1ccc(Oc2ccc(CC3SC(=O)NC3=O)cc2)cc1 (stereo not shown) [Compound of formula (C), (4-{4-[(2,4-Dioxo-1,3-thiazolidin-5-yl)methyl]phenoxy}phenyl)acetic acid] | 7.5±0.64 | no significant apoptosis | no significant apoptosis | no significant apoptosis | did not induce adipogenesis | markedly decreased | – | – | – |
| – | – | CN(CCOc1ccc(CC2SC(=O)NC2=O)cc1)c1ccccn1 (stereo not shown) [Rosiglitazone] | – | – | – | – | – | – | 7.3 | 67 | – |
| – | – | CN[C@@H]1C[C@H]2O[C@@](C)([C@@H]1OC)n1c3ccccc3c3c4c(c5c6ccccc6n2c5c31)C(=O)NC4 [staurosporine, reference compound] | – | – | – | – | – | – | – | – | approximately 23% |

— US20140187594A1, “DIPHENYL ETHER COMPOUNDS FOR THE TREATMENT OF LIVER, LUNG DISORDERS, DIABETIC COMPLICATIONS AND CARDIOVASCULAR DISEASES” (ORCHID CHEMICALS AND PHARMACEUTICALS LTD, priority 2010, published 2014)
